Reference: patent US20250049737A1, “Lauflumide and derivatives thereof for treating chronic fatigue syndrome and myalgic encephalomyelitis/chronic fatigue syndrome (ME/CFS)” (NLS Pharmaceutics AG, priority 2021, published 2025)
Entries after “also recorded” stand apart in the source; their conditions may differ.

Tests used:
[1] = molecular target: T1, DAT (h) (antagonist radioligand) (Homo sapiens, UniProt Q01959); assay: Radioligand binding panel (Eurofins CEREP), DAT; conditions: % inhibition of control specific binding
T1 construct: Eurofins CEREP (contract study 100014859)
T1 sequence (Q01959 whole entry): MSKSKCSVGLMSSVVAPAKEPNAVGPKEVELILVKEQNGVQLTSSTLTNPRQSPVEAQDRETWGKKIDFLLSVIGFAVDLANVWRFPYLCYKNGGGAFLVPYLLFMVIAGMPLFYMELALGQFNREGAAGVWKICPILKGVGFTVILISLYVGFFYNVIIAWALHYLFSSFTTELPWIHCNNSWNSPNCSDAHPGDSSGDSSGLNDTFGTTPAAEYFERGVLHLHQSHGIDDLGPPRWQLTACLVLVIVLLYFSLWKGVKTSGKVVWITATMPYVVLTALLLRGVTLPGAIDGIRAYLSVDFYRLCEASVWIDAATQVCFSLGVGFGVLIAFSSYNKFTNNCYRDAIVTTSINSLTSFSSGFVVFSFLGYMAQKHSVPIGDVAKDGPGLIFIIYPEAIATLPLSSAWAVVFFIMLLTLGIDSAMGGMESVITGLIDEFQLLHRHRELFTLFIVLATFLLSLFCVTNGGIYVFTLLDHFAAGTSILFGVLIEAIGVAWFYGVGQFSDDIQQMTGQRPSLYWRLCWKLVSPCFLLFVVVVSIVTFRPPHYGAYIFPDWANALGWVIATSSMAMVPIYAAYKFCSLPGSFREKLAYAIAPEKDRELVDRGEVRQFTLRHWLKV
Description: Lauflumide is tested at 10^-5 M, calculated as a % inhibition of control specific binding of a radioactively labeled ligand specific for each target.
This binding profile panel was broadly defined with roughly an equal number of selective, central and peripheral therapeutically relevant targets, including native animal tissues, radioligands and specific enzymes involved in cell cycle regulation in accordance with Eurofins Standard Operating Procedure (www.eurofins.fr).
For radioligand binding experiments, the half maximal inhibitory concentration (IC50) and the half maximal effective concentration (EC50) values were determined (via computer software) by nonlinear regression analysis of the competition curves using Hill equation curve fitting. The inhibition constants (Ki) were calculated using the Cheng-Prusoff equation (Ki=IC50/(1+(L/KD)), where L is the concentration of radioligand in the assay, and KD is the affinity of the radioligand for the receptor.
The results are expressed as a % control specific binding ([measured specific binding/control specific binding]×100) and as a % inhibition of control specific binding (100−[(measured specific binding/control specific binding)×100]) obtained in the presence of the test compounds. […]

[2] = Body weight during fatigue procedure and test period; assay type: in vivo, Rats, Sprague-Dawley; conditions: test period
Description: FIG. 26 Body weight (in g; mean, SEM) before the beginning and during the fatigue procedure (F-D1-7) and during the test period (T-D1-D3+24 h).
Animals were weighed every day.
(§1) After the end of the Fatigue procedure, animals were divided into 10 groups which received before tests (total: 3 administrations) a per-os (p.o., oral gavage) administration of: • Sham (no fatigue) group (N=12): Vehicle. • Control group (N=11): Vehicle. • Modafinil 32 (N=10): modafinil (32 mg/kg). • Modafinil 64 (N=10): modafinil (64 mg/kg). • Modafinil 128 (N=5): modafinil (128 mg/kg). • NLS-4 16 (N=5): NLS-4 (16 mg/kg). • NLS-4 32 (N=10): NLS-4 (32 mg/kg). • NLS-4 64 (N=10): NLS-4 (64 mg/kg). • NLS-4 128 (N=10): NLS-4 (128 mg/kg). • NLS-4 256 (N=5): NLS-4 (256 mg/kg).

impulsivity = assay: Impulsivity; assay type: in vivo; conditions: three doses tested; compared with modafinil
[3] = test system: Rat model of severe fatigue; assay: Rat model of severe fatigue (sleep deprivation): recording of circadian locomotor activity; assay type: in vivo, Rats, Sprague-Dawley; conditions: for Period after administration during which the distance travelled was dramatically increased: 2-h period analysis; for Distance travelled during the 12-h dark phase / Total distance travelled during the full 24-h period / Difference of distance travelled between the dark phase and the light phase / Distance travelled during the 12-h light phase: days 1, 2 and 3
Description: In the following example, Lauflumide is also called NLS-4.
Animals are individually housed in transparent polycarbonate cages (1354G Eurostandard Type IV cage, Tecniplast, Italy, 595×380×200 mm, floor area=1820 cm^2) filled with water (23±1° C.) to a height of 1.5 cm. A platform (5 cm height, 6.5 cm diameter) was located at the center of the cage. Animals can stay on the platform in order to stay dry but falls from it when it falls in deep sleep. […] During this period, animals were placed in a modified light/dark cycle with variable durations of the light and dark periods which change every day. This procedure is intended to disrupt the circadian rhythm.
The Sham group was housed in normal condition for the same period under a 12/12 h light/dark cycle.
After the end of the fatigue period, animals were placed in transparent polycarbonate cages (Type E, Iffa Credo, France, 450×300×200 mm, floor area=1032 cm^2), under a 12 h/12 h cycle. Cages were covered with a stainless steel grid in which food and a bottle are placed. A stainless steel removable divider separated food and water. The cages were placed in infrared photobeam detection systems (Acti-track, LSI Leticca, Panlab) allowing to record continuously the distance travelled in the cage. Locomotor activity was recorded continuously for 3 days. The test started at the beginning of the dark phase of the light/dark cycle.
Seventy-six animals were subjected to the fatigue procedure and to the tests as described above. Twelve animals (Sham group) were housed in standard condition.
as §1
Read-out: distance travelled during 24-h periods, 12-h dark and light periods and during 2-h periods.
Data are expressed as mean and standard error of mean (SEM).
Statistical analyses: Student's t test, repeated measure ANOVA.
A difference is considered statistically significant at p≤0.05.

[4] = 16 mg/kg p.o., vs. Control (fatigue) group
[5] = 16 mg/kg p.o., vs. Modafinil 32 group (32 mg/kg)
[6] = 16 mg/kg p.o., vs. Modafinil 64 group (64 mg/kg)
[7] = 16 mg/kg p.o., vs. Sham (no fatigue) group, listed as NLS-4
[8] = 32 mg/kg p.o., vs. Control (fatigue) group
[9] = 32 mg/kg p.o., vs. Sham (no fatigue) group
[10] = 64 mg/kg p.o., vs. Control (fatigue) group
[11] = 64 mg/kg p.o., vs. Sham (no fatigue) group
[12] = 128 mg/kg p.o., vs. Control (fatigue) group
[13] = 128 mg/kg p.o., vs. Sham (no fatigue) group
[14] = 256 mg/kg p.o., vs. Control (fatigue) group
[15] = 256 mg/kg p.o., vs. Sham (no fatigue) group

## NC(=O)C[S@@+]([O-])C(c1ccc(F)cc1)c1ccc(F)cc1 [Lauflumide, 2-[(R)-((bis(4-fluorophenyl)methane)sulfinyl)]acetamide]
[1]
  % Inhibition at 10^−5M: 84.4%
[2]; 16 mg/kg p.o.
  Weight loss induced by the fatigue procedure: not modified
[2]; 32-256 mg/kg p.o.
  Weight loss induced by the fatigue procedure: aggravated
impulsivity
  Impulsivity: improved impulsivity at the three doses tested with a better significant response than modafinil
[3]; 16 mg/kg NLS-4 vs. 64 mg/kg modafinil
  Dose reducing the impairment of circadian rhythm, relative to modafinil: four times lower
[3]; 16 mg/kg p.o.
  Increase in locomotor activity compared with modafinil (32 mg/kg): significantly higher
  Increase in locomotor activity compared with modafinil (64 mg/kg): of the same magnitude
  Motor activity during the first 2-h periods following the dosing: increased
  Period after administration during which the distance travelled was dramatically increased: 2 h
[3]; [4]
  Distance travelled during the 12-h dark phase: higher
  Total distance travelled during the full 24-h period: higher
[3]; 16 mg/kg p.o., vs. Control (fatigue) group, listed as NLS-4
  Difference of distance travelled between the dark phase and the light phase: higher or tended to be higher; also recorded: increased
[3]; [5]
  Difference of distance travelled between the dark phase and the light phase: higher than the Modafinil 32 group on days 2 and 3 only
  Distance travelled during the 12-h light phase: higher than the Modafinil 32 group during the dark period on day 3 only and during the light period on day 1 only
  Total distance travelled during the full 24-h period: higher than the Modafinil 32 group on day 3 only
[3]; [6]
  Difference of distance travelled between the dark phase and the light phase: not significantly different
  Distance travelled during the 12-h dark phase: not significantly different
  Distance travelled during the 12-h light phase: not significantly different
  Total distance travelled during the full 24-h period: not significantly different
[3]; 16 mg/kg p.o., vs. Sham (no fatigue) group
  Total distance travelled during the full 24-h period: not significantly different
[3]; [7]
  Difference of distance travelled between the dark phase and the light phase: increased the distance travelled in comparison with the Sham group during day 3 only; also recorded: higher than the Sham group on day 3 only
  Distance travelled during the 12-h dark phase: increased the distance travelled in comparison with the Sham group during the light phase on day 1 and during the dark phase on day 3; also recorded: higher than the Sham group during the dark period on day 3 only
  Distance travelled during the 12-h light phase: increased the distance travelled in comparison with the Sham group during the light phase on day 1 and during the dark phase on day 3; also recorded: higher than the Control group during the light periods on day 1 only
[3]; 32 mg/kg p.o.
  Period after administration during which the distance travelled was dramatically increased: 8 h
[3]; [8]
  Distance travelled during the 12-h dark phase: higher
  Distance travelled during the 12-h light phase: not significantly different
  Total distance travelled during the full 24-h period: higher
[3]; 32 mg/kg p.o., vs. Control (fatigue) group, listed as NLS-4
  Difference of distance travelled between the dark phase and the light phase: higher or tended to be higher; also recorded: increased
[3]; [9]
  Difference of distance travelled between the dark phase and the light phase: increased the distance travelled in comparison with the Sham group during day 3 only
  Distance travelled during the 12-h dark phase: increased the distance travelled in comparison with the Sham group during the light phase on days 1, 2 and 3, and during the dark phase on days 2 and 3
  Distance travelled during the 12-h light phase: increased the distance travelled in comparison with the Sham group during the light phase on days 1, 2 and 3, and during the dark phase on days 2 and 3
  Total distance travelled during the full 24-h period: increased the distance travelled in comparison with the Sham group during days 1, 2 and 3
[3]; [10]
  Distance travelled during the 12-h dark phase: higher
  Distance travelled during the 12-h light phase: higher for the NLS-4 64 group than for the Control group during the dark phase on days 1, 2 and 3 and during the light phase on day 3 only
  Total distance travelled during the full 24-h period: higher
[3]; 64 mg/kg p.o., vs. Control (fatigue) group, listed as NLS-4
  Difference of distance travelled between the dark phase and the light phase: higher or tended to be higher; also recorded: increased
[3]; [11]
  Distance travelled during the 12-h dark phase: increased the distance travelled in comparison with the Sham group during both the dark and light phase on days 1, 2 and 3
  Distance travelled during the 12-h light phase: increased the distance travelled in comparison with the Sham group during both the dark and light phase on days 1, 2 and 3
  Total distance travelled during the full 24-h period: increased the distance travelled in comparison with the Sham group during days 1, 2 and 3
[3]; [12]
  Distance travelled during the 12-h dark phase: higher
  Distance travelled during the 12-h light phase: higher
  Total distance travelled during the full 24-h period: higher
[3]; 128 mg/kg p.o., vs. Control (fatigue) group, listed as NLS-4
  Difference of distance travelled between the dark phase and the light phase: higher or tended to be higher; also recorded: increased
[3]; [13]
  Distance travelled during the 12-h dark phase: increased the distance travelled in comparison with the Sham group during both the dark and light phase on days 1, 2 and 3
  Distance travelled during the 12-h light phase: increased the distance travelled in comparison with the Sham group during both the dark and light phase on days 1, 2 and 3
  Total distance travelled during the full 24-h period: increased the distance travelled in comparison with the Sham group during days 1, 2 and 3
[3]; [14]
  Distance travelled during the 12-h dark phase: higher
  Distance travelled during the 12-h light phase: higher
  Total distance travelled during the full 24-h period: higher
[3]; 256 mg/kg p.o., vs. Control (fatigue) group, listed as NLS-4
  Difference of distance travelled between the dark phase and the light phase: higher or tended to be higher; also recorded: increased
[3]; [15]
  Difference of distance travelled between the dark phase and the light phase: increased the distance travelled in comparison with the Sham group during day 3 only
  Distance travelled during the 12-h dark phase: increased the distance travelled in comparison with the Sham group during both the dark and light phase on days 1, 2 and 3
  Distance travelled during the 12-h light phase: increased the distance travelled in comparison with the Sham group during both the dark and light phase on days 1, 2 and 3
  Total distance travelled during the full 24-h period: increased the distance travelled in comparison with the Sham group during days 1, 2 and 3
[3]; 16-256 mg/kg p.o.
  Distance travelled during the dark phase (2-h period analysis), dose relation: dose-dependently increased
[3]; 64-256 mg/kg p.o.
  Period after administration during which the distance travelled was dramatically increased: 10 h
